Where “and” joins values, the source holds several entries; their conditions need not be identical. Equal entries are not always repeated. Toxic doses and inconclusive results are not listed.
Tested on: P388 leukemia ip, CD2F1 mice, survival T/C
Assay: NCI In Vivo Anticancer Drug Screen. Data for tumor model P388 Leukemia (intraperitoneal) in CD2F1 (CDF1) mice
Conditions: endpoint: median survival time, higher = longer survival
Outline: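 Mice carrying the transplanted tumor received test compound or vehicle. Survival was recorded in each group, and the value is the treated-group measurement divided by that of the vehicle-treated control group.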

[1] = dose: 12.5 mg/kg/injection, schedule: Q01DX009 (ip), vehicle: Klucel (hydroxypropylcellulose) (HPC)
[2] = dose: 25.0 mg/kg/injection, schedule: Q01DX009 (ip), vehicle: Klucel (hydroxypropylcellulose) (HPC)
[3] = dose: 50.0 mg/kg/injection, schedule: Q01DX009 (ip), vehicle: Klucel (hydroxypropylcellulose) (HPC)
[4] = dose: 100.0 mg/kg/injection, schedule: Q01DX009 (ip), vehicle: Klucel (hydroxypropylcellulose) (HPC)
[5] = dose: 50.0 mg/kg/injection, schedule: Q01DX009 (ip), vehicle: saline
[6] = dose: 100.0 mg/kg/injection, schedule: Q01DX009 (ip), vehicle: saline
[7] = dose: 100.0 mg/kg/injection, schedule: Q01DX005 (ip), vehicle: saline
[8] = dose: 200.0 mg/kg/injection, schedule: Q01DX005 (ip), vehicle: saline
[9] = dose: 50.0 mg/kg/injection, schedule: Q01DX005 (ip), vehicle: Klucel (hydroxypropylcellulose) (HPC)
[10] = dose: 100.0 mg/kg/injection, schedule: Q01DX005 (ip), vehicle: Klucel (hydroxypropylcellulose) (HPC)
[11] = dose: 200.0 mg/kg/injection, schedule: Q01DX005 (ip), vehicle: Klucel (hydroxypropylcellulose) (HPC)

Structure (SMILES): COCCOc1cccc2c1C(=O)c1ccccc1C2=O
- T/C (dose: 50.0 mg/kg/injection, schedule: Q01DX005 (ip), vehicle: saline with Tween-80): 102 % of control
- T/C (dose: 100.0 mg/kg/injection, schedule: Q01DX005 (ip), vehicle: saline with Tween-80): 91 % of control

Structure (SMILES): CC1(CO)CCCC1NCCNC1CCCC1(C)CO (stereo unspecified)
- T/C (dose: 60.0 mg/kg/injection, schedule: Q01DX005 (ip), vehicle: saline with Tween-80): 102 % of control
- T/C (dose: 120.0 mg/kg/injection, schedule: Q01DX005 (ip), vehicle: saline with Tween-80): 105 % of control

Structure (SMILES): Cc1c2c(cc3c1[nH]c1ccccc13)C(c1ccc(Cl)cc1)=NCC2
- T/C [1]: 99 % of control
- T/C [2]: 101 % of control
- T/C [3]: 96 % of control
- T/C [4]: 96 % of control

Structure (SMILES): CN(c1ccccc1)c1cc2nc3ccccc3nc2cc1O
- T/C [5]: 98 % of control
- T/C [6]: 91 % of control

Structure (SMILES): ClCC[N+]12CC[N+](CCCl)(CC1)C2 (tested in a mixture with another compound)
- T/C (dose: 12.5 mg/kg/injection, schedule: Q01DX009 (ip), vehicle: water): 105 % of control and 118 % of control
- T/C (dose: 25.0 mg/kg/injection, schedule: Q01DX005 (ip), vehicle: saline): 116 % of control
- T/C (dose: 25.0 mg/kg/injection, schedule: Q01DX009 (ip), vehicle: water): 119 % of control
- T/C [5]: 159 % of control and 171 % of control
- T/C (dose: 50.0 mg/kg/injection, schedule: Q01DX009 (ip), vehicle: water): 150 % of control
- T/C [7]: 162 % of control and 168 % of control
- T/C [6]: 197 % of control and 198 % of control
- T/C (dose: 100.0 mg/kg/injection, schedule: Q01DX009 (ip), vehicle: water): 160 % of control and 196 % of control
- T/C [8]: 161 % of control and 212 % of control
- T/C (dose: 200.0 mg/kg/injection, schedule: Q01DX009 (ip), vehicle: saline): 240 % of control and 263 % of control
- T/C (dose: 200.0 mg/kg/injection, schedule: Q01DX009 (ip), vehicle: water): 188 % of control
- T/C (dose: 400.0 mg/kg/injection, schedule: Q01DX009 (ip), vehicle: saline): 281 % of control and 296 % of control

Structure (SMILES): CC(=O)Nc1ccc2nc(SC(C)C)sc2c1
- T/C (dose: 6.25 mg/kg/injection, schedule: Q01DX009 (ip), vehicle: Klucel (hydroxypropylcellulose) (HPC)): 104 % of control
- T/C [1]: 102 % of control
- T/C [2]: 96 % of control

Structure (SMILES): CCOC(=O)C1C(C(=O)c2ccc(Br)cc2)C12C(=O)N(C)c1ccccc12 (stereo unspecified)
- T/C (dose: 12.5 mg/kg/injection, schedule: Q04DX002 (ip), vehicle: saline with Tween-80): 99 % of control
- T/C (dose: 25.0 mg/kg/injection, schedule: Q04DX002 (ip), vehicle: saline with Tween-80): 92 % of control
- T/C (dose: 50.0 mg/kg/injection, schedule: Q04DX002 (ip), vehicle: saline with Tween-80): 93 % of control

Structure (SMILES): CC1OC(=O)C(C)C1=O (stereo unspecified)
- T/C (dose: 50.0 mg/kg/injection, schedule: Q01DX005 (ip), vehicle: saline): 104 % of control
- T/C [7]: 92 % of control
- T/C [8]: 113 % of control

Structure (SMILES): CCOC(=O)c1cnc(=O)[nH]c1C(=O)OCC
- T/C [9]: 91 % of control
- T/C [10]: 100 % of control
- T/C [11]: 99 % of control

Structure (SMILES): COc1ccc(-c2cc(-c3ccccc3)[nH]c(=O)c2N(C)C)cc1
- T/C [2]: 90 % of control
- T/C [3]: 89 % of control
- T/C [4]: 89 % of control
- T/C (dose: 200.0 mg/kg/injection, schedule: Q01DX009 (ip), vehicle: Klucel (hydroxypropylcellulose) (HPC)): 86 % of control

Structure (SMILES): Cc1ccc(C)c2c(C#Cc3ccccc3)c3ccccc3c(C#Cc3ccccc3)c12
- T/C [9]: 96 % of control
- T/C [10]: 90 % of control
- T/C [11]: 90 % of control
